In patent US20070298105A1, “METHODS OF TREATING CONDITIONS BY SUSTAINED RELEASE ADMINISTRATION OF BENZIMIDAZOLE DERIVATIVES” (priority 2006, published 2007):
Read-outs that look alike come from different tables or passages of the source.

Legend:
[1] = Colonic intubation study: plasma pharmacokinetics of rabeprazole and esomeprazole; assay type: in vivo, human; conditions: for AUC(0-inf): read-out: AUCinf (mean)
Description: A single-dose, open-label, partially randomized, five-treatment, five-period, crossover pilot study was performed in healthy males to determine relative pharmacokinetics of rabeprazole, and comparators when dosed either orally or colonically. The study was a single dose study with blood sampling up to 24 hours following initiation. […] Colonic dosing occurred using a nasoenteral tube. Treatment C was a single 20 mg dose of rabeprazole sodium oral enteric coated tablets dosed orally. Treatment D was placebo (200 mL of water) dosed orally. […] For subjects whose apparent elimination rate constant [k] could not be properly determined, the AUC to infinity [AUCinf]) was calculated based on the median apparent elimination constant [k] of the subjects with available t1/2 values in the same treatment period. […] The intragastric pH profile were determined.

intragastric pH = assay: Colonic intubation study: intragastric pH profile (percent of time with pH >4); assay type: in vivo, human
Description: A single-dose, open-label, partially randomized, five-treatment, five-period, crossover pilot study was performed in healthy males to determine relative pharmacokinetics of rabeprazole, and comparators when dosed either orally or colonically. The study was a single dose study with blood sampling up to 24 hours following initiation.
Treatments A and B were rabeprazole sodium solution dosed to provide 30 and 60 mg, respectively, over 20 hours in the transverse colon of the subjects. Colonic dosing occurred using a nasoenteral tube. Treatment C was a single 20 mg dose of rabeprazole sodium oral enteric coated tablets dosed orally. Treatment D was placebo (200 mL of water) dosed orally.
The intragastric pH profile was analyzed based on the percentage of time that the intragastric pH was above 4, which was calculated for the full 24 hours. In addition, the mean pH value over 5 time intervals of 6 hours each during the 30-hr sampling time was also estimated.

[2] = male, human, plasma, other: colonic (nasoenteral tube into the transverse colon), 30 mg, TRT A: rabeprazole 30 mg solution in the colon over 20 hours, N = 19
[3] = male, human, plasma, other: colonic (nasoenteral tube into the transverse colon), 30 mg, TRT A: rabeprazole 30 mg solution in the colon over 20 hours, subset N = 14
[4] = male, human, plasma, other: colonic (nasoenteral tube into the transverse colon), 60 mg, TRT B: rabeprazole 60 mg solution in the colon over 20 hours, N = 19
[5] = male, human, plasma, other: colonic (nasoenteral tube into the transverse colon), 60 mg, TRT B: rabeprazole 60 mg solution in the colon over 20 hours, subset N = 14
[6] = male, human, plasma, po, 20 mg, TRT C: rabeprazole 20 mg oral tablet, N = 19
[7] = male, human, plasma, po, 20 mg, TRT C: rabeprazole 20 mg oral tablet, subset N = 14

- Tmax ([1]; male, human, plasma, other: colonic (nasoenteral tube into the transverse colon), 30 mg, 30 mg rabeprazole colonic solution treatment, after start of treatment (colon infusion ended at 20 hr), read-out: median Tmax): ~18 h
- AUC(0-t) [1, 2]: 287 ng·h/mL
- AUC(0-inf) [1, 2]: 332 ng·h/mL
- Tmax ([1]; male, human, plasma, other: colonic (nasoenteral tube into the transverse colon), 30 mg, TRT A: rabeprazole 30 mg solution in the colon over 20 hours, N = 19, read-out: Tmax (median)): 18 h
- half-life ([1]; male, human, plasma, other: colonic (nasoenteral tube into the transverse colon), 30 mg, TRT A: rabeprazole 30 mg solution in the colon over 20 hours, N = 19, read-out: t1/2 (median) (converted)): 2 h
- Cmax ([1]; male, human, plasma, other: colonic (nasoenteral tube into the transverse colon), 30 mg, TRT A: rabeprazole 30 mg solution in the colon over 20 hours, single dose, healthy males, N = 19): 18 ng/mL
- AUC(0-t) [1, 3]: 290 ng·h/mL
- AUC(0-inf) [1, 3]: 343 ng·h/mL
- half-life ([1]; male, human, plasma, other: colonic (nasoenteral tube into the transverse colon), 30 mg, TRT A: rabeprazole 30 mg solution in the colon over 20 hours, subset N = 14, read-out: t1/2 (median) (converted)): 2 h
- Tmax ([1]; male, human, plasma, other: colonic (nasoenteral tube into the transverse colon), 60 mg, 60 mg rabeprazole colonic solution treatment, after start of treatment (colon infusion ended at 20 hr), read-out: median Tmax): ~18 h
- AUC(0-t) [1, 4]: 549 ng·h/mL
- AUC(0-inf) [1, 4]: 599 ng·h/mL
- Tmax ([1]; male, human, plasma, other: colonic (nasoenteral tube into the transverse colon), 60 mg, TRT B: rabeprazole 60 mg solution in the colon over 20 hours, N = 19, read-out: Tmax (median)): 18 h
- half-life ([1]; male, human, plasma, other: colonic (nasoenteral tube into the transverse colon), 60 mg, TRT B: rabeprazole 60 mg solution in the colon over 20 hours, N = 19, read-out: t1/2 (median) (converted)): 1.9 h
- Cmax ([1]; male, human, plasma, other: colonic (nasoenteral tube into the transverse colon), 60 mg, TRT B: rabeprazole 60 mg solution in the colon over 20 hours, single dose, healthy males, N = 19): 38.4 ng/mL
- AUC(0-t) [1, 5]: 586 ng·h/mL
- AUC(0-inf) [1, 5]: 646 ng·h/mL
- half-life ([1]; male, human, plasma, other: colonic (nasoenteral tube into the transverse colon), 60 mg, TRT B: rabeprazole 60 mg solution in the colon over 20 hours, subset N = 14, read-out: t1/2 (median) (converted)): 2.1 h
- half-life ([1]; male, human, plasma, other: colonic (nasoenteral tube into the transverse colon), rabeprazole following colonic treatment, read-out: median plasma half-life (converted)): ~2 h
- bioavailability ([1]; male, human, plasma, other: colonic (nasoenteral tube into the transverse colon), colonic treatment compared to oral tablets, dose-normalized basis, read-out: percent relative bioavailability (colonic bioavailability)): ~40%
- Cmax ([1]; male, human, plasma, other: colonic (transverse colon, via nasoenteral tube), 30 mg, TRT A: rabeprazole 30 mg solution in the colon over 20 hours, subset N = 14): 18.7 ng/mL
- Tmax ([1]; male, human, plasma, other: colonic (transverse colon, via nasoenteral tube), 30 mg, TRT A: rabeprazole 30 mg solution in the colon over 20 hours, subset N = 14, read-out: Tmax (median)): 18 h
- Cmax ([1]; male, human, plasma, other: colonic (transverse colon, via nasoenteral tube), 60 mg, TRT B: rabeprazole 60 mg solution in the colon over 20 hours, subset N = 14): 43.7 ng/mL
- Tmax ([1]; male, human, plasma, other: colonic (transverse colon, via nasoenteral tube), 60 mg, TRT B: rabeprazole 60 mg solution in the colon over 20 hours, subset N = 14, read-out: Tmax (median)): 18 h
- Tmax ([1]; male, human, plasma, po, 20 mg, 20 mg rabeprazole oral tablet treatment, read-out: median Tmax): 4.5 to 6 h
- AUC(0-t) [1, 6]: 534 ng·h/mL
- AUC(0-inf) [1, 6]: 603 ng·h/mL
- Tmax ([1]; male, human, plasma, po, 20 mg, TRT C: rabeprazole 20 mg oral tablet, N = 19, read-out: Tmax (median)): 4.5 h
- half-life ([1]; male, human, plasma, po, 20 mg, TRT C: rabeprazole 20 mg oral tablet, N = 19, read-out: t1/2 (median) (converted)): 0.96 h
- Cmax ([1]; male, human, plasma, po, 20 mg, TRT C: rabeprazole 20 mg oral tablet, single dose, healthy males, N = 19): 239 ng/mL
- AUC(0-t) [1, 7]: 619 ng·h/mL
- Cmax [1, 7]: 267 ng/mL
- AUC(0-inf) [1, 7]: 697 ng·h/mL
- Tmax ([1]; male, human, plasma, po, 20 mg, TRT C: rabeprazole 20 mg oral tablet, subset N = 14, read-out: Tmax (median)): 6 h
- half-life ([1]; male, human, plasma, po, 20 mg, TRT C: rabeprazole 20 mg oral tablet, subset N = 14, read-out: t1/2 (median) (converted)): 1 h
- half-life ([1]; male, human, plasma, po, 20 mg, rabeprazole following oral administration, read-out: median plasma half-life (converted)): ~1 h
- AUC compared with 20 mg oral tablet ([1]; rabeprazole 60 mg colonic treatment): comparable AUC
SMILES: COCCCOc1ccnc(C[S+]([O-])c2nc3ccccc3[nH]2)c1C (centres unmarked) [Rabeprazole, 2-[[[4-(3-methoxypropoxy)-3-methyl-2-pyridinyl]-methyl]sulfinyl]-1H-benzimidazole]
- dose proportionality of mean Cmax and AUC ([1]; 30 mg and 60 mg colonic treatments): increased approximately dose proportionally
- Mean percent of time with pH >4 (intragastric pH; 0-6 hr (10 am-4 pm), TRT A: rabeprazole 30 mg solution in the colon, N = 19): 30.6%
- Mean percent of time with pH >4 (intragastric pH; 0-6 hr (10 am-4 pm), TRT B: rabeprazole 60 mg solution in the colon, N = 19): 32.6%
- Mean percent of time with pH >4 (intragastric pH; 0-6 hr (10 am-4 pm), TRT B: rabeprazole 60 mg solution in the colon, subset N = 14): 34.6%
- Mean percent of time with pH >4 (intragastric pH; 0-6 hr (10 am-4 pm), TRT C: rabeprazole 20 mg oral tablet, N = 19): 31.1%
- Mean percent of time with pH >4 (intragastric pH; 0-6 hr (10 am-4 pm), TRT C: rabeprazole 20 mg oral tablet, subset N = 14): 29.1%
- Mean percent of time with pH >4 (intragastric pH; 6-12 hr (4 pm-10 pm), TRT A: rabeprazole 30 mg solution in the colon, N = 19): 37.9%
- Mean percent of time with pH >4 (intragastric pH; 6-12 hr (4 pm-10 pm), TRT B: rabeprazole 60 mg solution in the colon, N = 19): 50.5%
- Mean percent of time with pH >4 (intragastric pH; 6-12 hr (4 pm-10 pm), TRT B: rabeprazole 60 mg solution in the colon, subset N = 14): 55.8%
- Mean percent of time with pH >4 (intragastric pH; 6-12 hr (4 pm-10 pm), TRT C: rabeprazole 20 mg oral tablet, N = 19): 60.9%
- Mean percent of time with pH >4 (intragastric pH; 6-12 hr (4 pm-10 pm), TRT C: rabeprazole 20 mg oral tablet, subset N = 14): 63.6%
- Mean percent of time with pH >4 (intragastric pH; 12-18 hr (10 pm-4 am), TRT A: rabeprazole 30 mg solution in the colon, N = 19): 23.2%
- Mean percent of time with pH >4 (intragastric pH; 12-18 hr (10 pm-4 am), TRT B: rabeprazole 60 mg solution in the colon, N = 19): 34.3%
- Mean percent of time with pH >4 (intragastric pH; 12-18 hr (10 pm-4 am), TRT B: rabeprazole 60 mg solution in the colon, subset N = 14): 39.9%
- Mean percent of time with pH >4 (intragastric pH; 12-18 hr (10 pm-4 am), TRT C: rabeprazole 20 mg oral tablet, N = 19): 25.9%
- Mean percent of time with pH >4 (intragastric pH; 12-18 hr (10 pm-4 am), TRT C: rabeprazole 20 mg oral tablet, subset N = 14): 26.7%
- Mean percent of time with pH >4 (intragastric pH; 18-24 hr (4 am-10 am), TRT A: rabeprazole 30 mg solution in the colon, N = 19): 47.2%
- Mean percent of time with pH >4 (intragastric pH; 18-24 hr (4 am-10 am), TRT B: rabeprazole 60 mg solution in the colon, N = 19): 64.0%
- Mean percent of time with pH >4 (intragastric pH; 18-24 hr (4 am-10 am), TRT B: rabeprazole 60 mg solution in the colon, subset N = 14): 68.9%
- Mean percent of time with pH >4 (intragastric pH; 18-24 hr (4 am-10 am), TRT C: rabeprazole 20 mg oral tablet, N = 19): 37.8%
- Mean percent of time with pH >4 (intragastric pH; 18-24 hr (4 am-10 am), TRT C: rabeprazole 20 mg oral tablet, subset N = 14): 35.4%
- Mean percent of time with pH >4 (intragastric pH; 24-30 hr (10 am-4 pm), TRT A: rabeprazole 30 mg solution in the colon, N = 19): 45.4%
- Mean percent of time with pH >4 (intragastric pH; 24-30 hr (10 am-4 pm), TRT B: rabeprazole 60 mg solution in the colon, N = 19): 64.4%
- Mean percent of time with pH >4 (intragastric pH; 24-30 hr (10 am-4 pm), TRT B: rabeprazole 60 mg solution in the colon, subset N = 14): 72.0%
- Mean percent of time with pH >4 (intragastric pH; 24-30 hr (10 am-4 pm), TRT C: rabeprazole 20 mg oral tablet, N = 19): 43.6%
- Mean percent of time with pH >4 (intragastric pH; 24-30 hr (10 am-4 pm), TRT C: rabeprazole 20 mg oral tablet, subset N = 14): 45.4%
- Mean percent of time with pH >4 (intragastric pH; 24-hr average, TRT A: rabeprazole 30 mg solution in the colon, N = 19): 34.7%
- Mean percent of time with pH >4 (intragastric pH; 24-hr average, TRT A: rabeprazole 30 mg solution in the colon, N = 19, listed as rabeprazole): 35%
- Mean percent of time with pH >4 (intragastric pH; 24-hr average, TRT B: rabeprazole 60 mg solution in the colon, N = 19): 44.9%
- Mean percent of time with pH >4 (intragastric pH; 24-hr average, TRT B: rabeprazole 60 mg solution in the colon, N = 19, listed as rabeprazole): 45%
- Mean percent of time with pH >4 (intragastric pH; 24-hr average, TRT B: rabeprazole 60 mg solution in the colon, subset N = 14): 49.2%
- Mean percent of time with pH >4 (intragastric pH; 24-hr average, TRT C: rabeprazole 20 mg oral tablet, N = 19): 38.9%
- Mean percent of time with pH >4 (intragastric pH; 24-hr average, TRT C: rabeprazole 20 mg oral tablet, N = 19, listed as rabeprazole): 39%
- Mean percent of time with pH >4 (intragastric pH; 24-hr average, TRT C: rabeprazole 20 mg oral tablet, subset N = 14): 38.7%
- dose dependence of percentage of time with pH >4 (intragastric pH; 30 and 60 mg colonic rabeprazole treatments, 6-12 h period and beyond): dose-dependent increase
- effect on percentage of time with pH >4 compared to placebo (intragastric pH; first 6 hours of treatment, rabeprazole Treatments A, B and C): not significantly different from placebo
- gastric pH control compared with rabeprazole 20 mg tablet (intragastric pH; rabeprazole 60 mg colonic treatment, especially during the night-time period (12-30 hr)): better gastric pH control
